Experimental data published in article PMC11491487 (Nature Communications, 2024).
“And” between values parts separate entries of the source, which are not always exact repeats. Identical values can stand only once.

Key:
[1] = tested on: Drosophila melanogaster RyR M4758I; assay: Bioassay of gene-edited Drosophila melanogaster (feeding, mortality after 24 h); type: in vivo; settings: 24 h
[2] = tested on: Drosophila melanogaster RyR G4915E; assay: as above; type: in vivo; settings: 24 h

Cc1cc(C(F)(C(F)(F)F)C(F)(F)F)ccc1NC(=O)c1cccc(I)c1C(=O)NC(C)(C)CS(C)(=O)=O [FLU, flubendiamide]
death rate ([1]; FLU 0.033 uM): 0% | death rate ([1]; FLU 0.100 uM): 0% and 10% | death rate ([1]; FLU 0.333 uM): 10% | death rate ([1]; FLU 1.000 uM): 10% and 20% | death rate ([1]; FLU 3.333 uM): 20% and 30% | death rate ([1]; FLU 10.000 uM): 50% | death rate ([1]; FLU 33.333 uM): 60% and 70% | death rate ([1]; FLU 100.000 uM): 100% | death rate ([1]; FLU 333.333 uM): 100% | death rate ([2]; FLU 1.000 uM): 0% | death rate ([2]; FLU 3.333 uM): 0% | death rate ([2]; FLU 10.000 uM): 0% | death rate ([2]; FLU 33.333 uM): 0% | death rate ([2]; FLU 100.000 uM): 0% | death rate ([2]; FLU 333.333 uM): 0%
